Data as given in patent US12679878B2, “CRF2 receptor agonists and their use in therapy” (SANOFI, priority 2020, dated 2026).
Read-outs that look alike come from different tables or passages of the source. Starred links: 1 amine or outer side, 2 acyl side, 3 side chain; linkers in the order of their positions; H or OH if unused. Non-standard residues stand in square brackets, D forms with d. Residues, ends and D or L forms follow the SMILES beside them. Groups on a side chain read outwards from the residue. *: point of attachment. C18 diacid = O=C(O)CCCCCCCCCCCCCCCCC(=O)*; γGlu = O=C(O)[C@H](CCC(=O)[*:2])N[*:1]; AEEA = NCCOCCOCC(=O)O; Aib = CC(C)(N)C(=O)O

Target: T1, human CRF2α receptor (Homo sapiens, UniProt Q13324)
T1 construct: expressed in transfected cells; host or cells: TeloHEAC
T1 sequence (Q13324 1-411): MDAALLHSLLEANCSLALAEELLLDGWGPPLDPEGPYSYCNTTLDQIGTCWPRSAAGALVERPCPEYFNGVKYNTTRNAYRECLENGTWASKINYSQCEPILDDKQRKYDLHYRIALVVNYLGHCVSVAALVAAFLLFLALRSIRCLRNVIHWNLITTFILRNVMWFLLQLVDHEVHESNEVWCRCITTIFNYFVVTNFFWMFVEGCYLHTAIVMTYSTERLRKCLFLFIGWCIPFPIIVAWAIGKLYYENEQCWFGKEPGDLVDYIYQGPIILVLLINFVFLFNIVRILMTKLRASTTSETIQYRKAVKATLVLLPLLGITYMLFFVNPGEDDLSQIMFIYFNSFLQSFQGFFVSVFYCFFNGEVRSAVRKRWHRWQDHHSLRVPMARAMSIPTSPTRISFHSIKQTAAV
Test: cAMP agonism at human CRF2 α receptor in TeloHEAC cells (Example 7)
Assay type: cell-based
Procedure, shortened: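 Percent activation was referenced to 1000 nM UCN2 (100%), and EC50 values taken as concentrations giving half of maximal response. The read-out was a homogeneous time-resolved fluorescence cAMP kit, fluorescence ratio 665/620 nm. Thawed cells (2000/well) saw compound for 30 min at RT in buffer with 2 mM IBMX and 0%/0.1% HSA.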

[1] = cAMP HTRF, TeloHEAC cells stably expressing human CRF2 α, 0% HSA, read-out: EC50 [nM], 0% HSA
[2] = cAMP HTRF, TeloHEAC cells stably expressing human CRF2 α, 0.1% HSA, read-out: EC50 [nM], 0.1% HSA

EC50 [1] [nM] | EC50 [2] [nM] | SMILES | EC50 (EC50 [nM], 0% HSA) [nM] | EC50 (EC50 [nM], 0.1% HSA) [nM]
1.27 | 61.1 | CC[C@H](C)[C@H](N)C(=O)N[C@H](C(=O)N[C@@H](CC(C)C)C(=O)N[C@@H](CO)C(=O)N[C@@H](CC(C)C)C(=O)N[C@@H](CC(=O)O)C(=O)N[C@H](C(=O)N1CCC[C@H]1C(=O)N[C@H](C(=O)N[C@@H](CCCCN)C(=O)N[C@@H](CC(C)C)C(=O)N[C@@H](CCCCNC(=O)COCCOCCNC(=O)COCCOCCNC(=O)CC[C@H](NC(=O)CCCCCCCCCCCCCCCCC(=O)O)C(=O)O)C(=O)N[C@@H](CCC(N)=O)C(=O)N[C@H](C(=O)N[C@@H](CC(C)C)C(=O)N[C@@H](CC(C)C)C(=O)N[C@@H](CCCCN)C(=O)N[C@@H](CCC(N)=O)C(=O)N[C@@H](CCC(=O)O)C(=O)N[C@@H](CCCNC(=N)N)C(=O)N[C@@H](CCC(N)=O)C(=O)N[C@@H](CCCCN)C(=O)N[C@@H](CCCCN)C(=O)N[C@@H](CCC(N)=O)C(=O)N[C@@H](CCCNC(=N)N)C(=O)N[C@@H](CCC(=O)O)C(=O)N[C@@H](CCC(N)=O)C(=O)N[C@@H](C)C(=O)N[C@@H](CCC(=O)O)C(=O)N[C@@H](CCCCN)C(=O)N[C@@H](CC(N)=O)C(=O)N[C@@H](CCCCN)C(=O)N[C@@H](CCC(N)=O)C(=O)N[C@H](C(=O)N[C@@H](CC(C)C)C(=O)N[C@@H](CCC(=O)O)C(=O)N[C@@H](CCC(N)=O)C(=O)N[C@H](C(N)=O)C(C)C)[C@@H](C)CC)[C@@H](C)CC)[C@@H](C)CC)C(C)C)C(C)C [compound 120] (H-IVLSLDVPIKLK([AEEA-AEEA-γGlu-C18 diacid])QILLKQERQKKQREQAEKNKQILEQV-NH2) |  | 
0.16 | 5.14 | CC[C@H](C)[C@H](N)C(=O)N[C@H](C(=O)N[C@@H](CC(C)C)C(=O)N[C@@H](CO)C(=O)N[C@@H](CC(C)C)C(=O)N[C@@H](CC(=O)O)C(=O)N[C@@H](C(=O)N1CCC[C@H]1C(=O)N[C@H](C(=O)N[C@@H](CCCCN)C(=O)N[C@@H](CC(C)C)C(=O)N[C@@H](CCCCNC(=O)COCCOCCNC(=O)COCCOCCNC(=O)CC[C@H](NC(=O)CCCCCCCCCCCCCCCCC(=O)O)C(=O)O)C(=O)N[C@@H](CCC(N)=O)C(=O)N[C@H](C(=O)N[C@@H](CC(C)C)C(=O)N[C@@H](CC(C)C)C(=O)N[C@@H](CCC(=O)O)C(=O)N[C@@H](CCC(N)=O)C(=O)N[C@@H](C)C(=O)N[C@@H](CCCCN)C(=O)N[C@@H](CCC(N)=O)C(=O)N[C@@H](CCCCN)C(=O)NC(C)(C)C(=O)N[C@@H](CCC(N)=O)C(=O)N[C@@H](CCCNC(=N)N)C(=O)N[C@@H](CCC(=O)O)C(=O)N[C@@H](CCC(N)=O)C(=O)N[C@@H](C)C(=O)N[C@@H](CCC(=O)O)C(=O)N[C@@H](CCCCN)C(=O)N[C@@H](CC(N)=O)C(=O)N[C@@H](CCCCN)C(=O)N[C@@H](CCCNC(=N)N)C(=O)N[C@H](C(=O)N[C@@H](CC(C)C)C(=O)N[C@@H](CCC(=O)O)C(=O)N[C@@H](CCCNC(=N)N)C(=O)N[C@H](C(N)=O)C(C)C)[C@@H](C)CC)[C@@H](C)CC)[C@@H](C)CC)C(C)C)C(C)C [compound 127] (H-IVLSLD[dV]PIKLK([AEEA-AEEA-γGlu-C18 diacid])QILLEQAKQK[Aib]QREQAEKNKRILERV-NH2; N-terminus assumed) |  | 
0.64 | 20.1 | CC[C@H](C)[C@H](N)C(=O)N[C@H](C(=O)N[C@@H](CC(C)C)C(=O)N[C@@H](CO)C(=O)N[C@@H](CC(C)C)C(=O)N[C@@H](CC(=O)O)C(=O)N[C@@H](C(=O)N1CCC[C@H]1C(=O)N[C@H](C(=O)N[C@@H](CCCCN)C(=O)N[C@@H](CC(C)C)C(=O)N[C@@H](CCCCNC(=O)COCCOCCNC(=O)COCCOCCNC(=O)CC[C@H](NC(=O)CCCCCCCCCCCCCCCCC(=O)O)C(=O)O)C(=O)N[C@@H](CCC(N)=O)C(=O)N[C@H](C(=O)N[C@@H](CC(C)C)C(=O)N[C@@H](CC(C)C)C(=O)N[C@@H](CCCCN)C(=O)N[C@@H](CCC(N)=O)C(=O)N[C@@H](C)C(=O)N[C@@H](CCCNC(=N)N)C(=O)N[C@@H](CCC(N)=O)C(=O)N[C@@H](CCCCN)C(=O)NC(C)(C)C(=O)N[C@@H](CCC(N)=O)C(=O)N[C@@H](CCCNC(=N)N)C(=O)N[C@@H](CCC(=O)O)C(=O)N[C@@H](CCC(N)=O)C(=O)N[C@@H](C)C(=O)N[C@@H](CCC(=O)O)C(=O)N[C@@H](CCCCN)C(=O)N[C@@H](CC(N)=O)C(=O)N[C@@H](CCCCN)C(=O)N[C@@H](CCCNC(=N)N)C(=O)N[C@H](C(=O)N[C@@H](CC(C)C)C(=O)N[C@@H](CCC(=O)O)C(=O)N[C@@H](CCCNC(=N)N)C(=O)N[C@H](C(N)=O)C(C)C)[C@@H](C)CC)[C@@H](C)CC)[C@@H](C)CC)C(C)C)C(C)C [compound 128] (H-IVLSLD[dV]PIKLK([AEEA-AEEA-γGlu-C18 diacid])QILLKQARQK[Aib]QREQAEKNKRILERV-NH2; N-terminus assumed) |  | 
0.15 | 3.02 | CC[C@H](C)[C@H](N)C(=O)N[C@H](C(=O)N[C@@H](CC(C)C)C(=O)N[C@@H](CO)C(=O)N[C@@H](CC(C)C)C(=O)N[C@@H](CC(=O)O)C(=O)N[C@@H](C(=O)N1CCC[C@H]1C(=O)N[C@H](C(=O)N[C@@H](CCCCN)C(=O)N[C@@H](CC(C)C)C(=O)N[C@@H](CCCCNC(=O)COCCOCCNC(=O)COCCOCCNC(=O)CC[C@H](NC(=O)CCCCCCCCCCCCCCCCC(=O)O)C(=O)O)C(=O)N[C@@H](CCC(N)=O)C(=O)N[C@H](C(=O)N[C@@H](CC(C)C)C(=O)N[C@@H](CC(C)C)C(=O)N[C@@H](CCC(=O)O)C(=O)N[C@@H](CCC(N)=O)C(=O)N[C@@H](CCC(=O)O)C(=O)N[C@@H](CCCNC(=N)N)C(=O)N[C@@H](CCC(N)=O)C(=O)N[C@@H](CCCCN)C(=O)NC(C)(C)C(=O)N[C@@H](CCC(N)=O)C(=O)N[C@@H](CCCNC(=N)N)C(=O)N[C@@H](CCC(=O)O)C(=O)N[C@@H](CCC(N)=O)C(=O)N[C@@H](C)C(=O)N[C@@H](CCC(=O)O)C(=O)N[C@@H](CCCCN)C(=O)N[C@@H](CC(N)=O)C(=O)N[C@@H](CCCCN)C(=O)N[C@@H](CCC(N)=O)C(=O)N[C@H](C(=O)N[C@@H](CC(C)C)C(=O)N[C@@H](C)C(=O)N[C@@H](CCC(N)=O)C(=O)N[C@H](C(N)=O)C(C)C)[C@@H](C)CC)[C@@H](C)CC)[C@@H](C)CC)C(C)C)C(C)C [compound 129] (H-IVLSLD[dV]PIKLK([AEEA-AEEA-γGlu-C18 diacid])QILLEQERQK[Aib]QREQAEKNKQILAQV-NH2) |  | 
0.09 | 3.19 | CC[C@H](C)[C@H](N)C(=O)N[C@H](C(=O)N[C@@H](CC(C)C)C(=O)N[C@@H](CO)C(=O)N[C@@H](CC(C)C)C(=O)N[C@@H](CC(=O)O)C(=O)N[C@@H](C(=O)N1CCC[C@H]1C(=O)N[C@H](C(=O)N[C@@H](CCCCN)C(=O)N[C@@H](CC(C)C)C(=O)N[C@@H](CCCCNC(=O)COCCOCCNC(=O)COCCOCCNC(=O)CC[C@H](NC(=O)CCCCCCCCCCCCCCCCC(=O)O)C(=O)O)C(=O)N[C@@H](CCC(N)=O)C(=O)N[C@H](C(=O)N[C@@H](CC(C)C)C(=O)N[C@@H](CC(C)C)C(=O)N[C@@H](CCCCN)C(=O)N[C@@H](CCC(N)=O)C(=O)N[C@@H](CCC(=O)O)C(=O)N[C@@H](CCCNC(=N)N)C(=O)N[C@@H](CCC(N)=O)C(=O)N[C@@H](CCCCN)C(=O)NC(C)(C)C(=O)N[C@@H](CCC(N)=O)C(=O)N[C@@H](CCCNC(=N)N)C(=O)N[C@@H](CCC(=O)O)C(=O)N[C@@H](CCC(N)=O)C(=O)N[C@@H](C)C(=O)N[C@@H](CCC(=O)O)C(=O)N[C@@H](CCCCN)C(=O)N[C@@H](CC(N)=O)C(=O)N[C@@H](CCCCN)C(=O)N[C@@H](CCC(N)=O)C(=O)N[C@H](C(=O)N[C@@H](CC(C)C)C(=O)N[C@@H](CCC(=O)O)C(=O)N[C@@H](CCCNC(=N)N)C(=O)N[C@H](C(N)=O)C(C)C)[C@@H](C)CC)[C@@H](C)CC)[C@@H](C)CC)C(C)C)C(C)C [compound 133] (H-IVLSLD[dV]PIKLK([AEEA-AEEA-γGlu-C18 diacid])QILLKQERQK[Aib]QREQAEKNKQILERV-NH2; N-terminus assumed) |  | 
 |  | CC[C@H](C)[C@H](NC(=O)[C@H](CCC(N)=O)NC(=O)[C@H](CCCCN)NC(=O)[C@H](CC(N)=O)NC(=O)[C@@H](NC(=O)[C@H](CCCCN)NC(=O)[C@H](C)NC(=O)[C@H](CCCCN)NC(=O)[C@H](CCC(N)=O)NC(=O)[C@H](CCCNC(=N)N)NC(=O)[C@H](CCC(N)=O)NC(=O)[C@H](CCCCN)NC(=O)[C@H](CCCCN)NC(=O)[C@H](CCC(N)=O)NC(=O)[C@H](CCCCN)NC(=O)[C@H](CCC(=O)O)NC(=O)[C@H](CCC(N)=O)NC(=O)[C@H](CCCCN)NC(=O)[C@H](CC(C)C)NC(=O)[C@H](CC(C)C)NC(=O)[C@@H](NC(=O)[C@H](CCC(N)=O)NC(=O)[C@H](CCCCNC(=O)COCCOCCNC(=O)COCCOCCNC(=O)CC[C@H](NC(=O)CCCCCCCCCCCCCCCCC(=O)O)C(=O)O)NC(=O)[C@@H](NC(=O)[C@H](CCCCN)NC(=O)[C@@H](NC(=O)[C@@H]1CCCN1C(=O)[C@@H](NC(=O)[C@H](CC(=O)O)NC(=O)[C@H](CC(C)C)NC(=O)[C@H](CO)NC(=O)[C@H](CC(C)C)NC(=O)[C@@H](NC(=O)[C@@H](N)Cc1ccccc1)[C@@H](C)O)C(C)C)[C@@H](C)O)[C@@H](C)CC)[C@@H](C)CC)[C@@H](C)O)C(=O)N[C@@H](CC(C)C)C(=O)N[C@@H](CCC(=O)O)C(=O)N[C@@H](CCCNC(=N)N)C(=O)N[C@H](C(N)=O)C(C)C [compound 143] (H-FTLSLDVPTKIK([AEEA-AEEA-γGlu-C18 diacid])QILLKQEKQKKQRQKAKTNKQILERV-NH2) | 1.44 | 93.8
